Key:
wet hair of individuals = test: Spraying onto the wet hair of individuals; assay type: in vivo; details: sprayed onto wet hair, left on while hair dried, combed and brushed while damp
Description: A suspension of BC/DPLC was prepared as described in Example 1. It was sprayed onto the wet hair of individuals and left on while the hair dried. The hair was combed and brushed while still damp.
A solution of BC, equal in the concentration BC as in Example 1, was also sprayed on the wet hair of an individual, as described above.

[1] = Spraying of formulations onto surface of a pan of water (dilution stability of aggregates); assay type: physicochemical; details: mixed vigorously, sprayed onto surface of a pan of water at room temperature (20° C.)
Description: The two formulations are each mixed vigorously to disperse their contents and then sprayed onto the surface of a pan of water at room temperature (20° C.).

[2] = Appearance of solutions after cooling to room temperature; assay type: physicochemical; details: cooled from 85° C. to room temperature
Description: A solution of BC is prepared by adding 20 grams BTMC-85 (Mason chemical company, 80% active by weight) to 330 ml of water and heating to 85° C. 50 grams of DPLC (SL-5, Mason chemical company, 35% active by weight) is added. The solution is clear and a slight yellow in color. A solution of BC is prepared in water as above but without addition of DPLC. Both solutions are cooled to room temperature.

[3] = Spraying onto a clear glass surface held perpendicular to the ground (retention); assay type: physicochemical; details: sprayed on clear glass held perpendicular to the ground; same BC concentration
From the text: A BC/DPLC suspension prepared as in Example 1 and a BC solution (at the same concentration) are sprayed on to a clear glass surface held perpendicular to the ground. The liquids run freely downward. […] This teaches that spraying of the BC/DPLC formulation achieves the desired benefit, as expected in its use on hair and skin.

appearance of solution after cooling [2]: forms a uniform milky suspension | appearance of glass surface after liquid runs off [3]: clear
SMILES: CCCCCCCCCCCCCCCCCCCCCC[N+](C)(C)C [BC, Behentrimonium chloride (N,N,N-trimethyldocosan-1-aminium chloride]
feel of hair (wet hair of individuals): oily, and lacked the feel and management properties of the BC/DPLC formulation | behaviour on dilution in water [1]: gradually diffuses down into the water layer resulting in a nearly clear, transparent solution
